Source: ChEMBL document CHEMBL3045291, “Synthesis and evaluation of new potent inhibitors of CK1 and CDK5, two kinases involved in Alzheimers disease” (Med Chem Res, 2013)
pIC50: −log10 of the molar value.

Key:
[1] = target: Cyclin-dependent kinase 5/CDK5 activator 1 (Homo sapiens, UniProt Q00535); experiment: Inhibition of human recombinant CDK5/p25 using histone H1 and [gamma33P]ATP as substrate after 30 min by scintillation counting; format: protein-complex assay
[2] = target: Cyclin-dependent kinase 2/cyclin A (Homo sapiens, UniProt P24941); experiment: Inhibition of human recombinant CDK2/cyclin A using histone H1 and [gamma33P]ATP as substrate after 30 min by scintillation counting; format: protein-complex assay
[3] = target: Casein kinase 1, delta tv1 (Sus scrofa, UniProt M3VH47); experiment: Inhibition of Sus scrofa (pig) casein kinase 1delta/epsilon isolated from brain using RRKHAAIGpSAYSITA and [gamma33P]ATP as substrate after 30 min by scintillation counting
Chain of Casein kinase 1, delta tv1 (M3VH47 whole entry): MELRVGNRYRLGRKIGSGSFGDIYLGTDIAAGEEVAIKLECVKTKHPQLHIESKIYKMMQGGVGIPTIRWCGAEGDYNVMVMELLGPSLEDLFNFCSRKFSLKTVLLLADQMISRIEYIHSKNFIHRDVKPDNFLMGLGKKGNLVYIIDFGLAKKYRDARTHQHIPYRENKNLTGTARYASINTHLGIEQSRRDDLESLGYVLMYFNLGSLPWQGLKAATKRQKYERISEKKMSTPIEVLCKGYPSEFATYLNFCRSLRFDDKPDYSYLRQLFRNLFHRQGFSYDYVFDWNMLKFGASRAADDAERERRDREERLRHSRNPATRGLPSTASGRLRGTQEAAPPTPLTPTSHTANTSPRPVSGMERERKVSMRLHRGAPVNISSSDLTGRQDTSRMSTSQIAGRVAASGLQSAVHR

[4] = target: Glycogen synthase kinase-3 (Sus scrofa, UniProt B2LUN4+I6LNT8); experiment: Inhibition of Sus scrofa (pig) glycogen synthase kinase 3alpha/beta isolated from brain using YRRAAVPPSPSLSRHSSPHQpSEDEEE and [gamma33P]ATP as substrate after 30 min by liquid scintillation counting
[5] = target: Dual specificity tyrosine-phosphorylation-regulated kinase 1A (Homo sapiens, UniProt Q13627); experiment: Inhibition of Homo sapiens (human) recombinant GST-tagged DYRK1A expressed in Escherichia coli using KKISGRLSPIMTEQ and [gamma33P]ATP as substrate after 30 min by scintillation counting
[6] = target: T1, G2/mitotic-specific cyclin-B (Asterina pectinifera, UniProt P18063); experiment: Inhibition of Asteroidea (starfish) Cyclin-dependent kinase 1/cyclin B isolated from oocyte using histone H1 and [gamma33P]ATP as substrate after 30 min by scintillation counting
T1 sequence (P18063 whole entry): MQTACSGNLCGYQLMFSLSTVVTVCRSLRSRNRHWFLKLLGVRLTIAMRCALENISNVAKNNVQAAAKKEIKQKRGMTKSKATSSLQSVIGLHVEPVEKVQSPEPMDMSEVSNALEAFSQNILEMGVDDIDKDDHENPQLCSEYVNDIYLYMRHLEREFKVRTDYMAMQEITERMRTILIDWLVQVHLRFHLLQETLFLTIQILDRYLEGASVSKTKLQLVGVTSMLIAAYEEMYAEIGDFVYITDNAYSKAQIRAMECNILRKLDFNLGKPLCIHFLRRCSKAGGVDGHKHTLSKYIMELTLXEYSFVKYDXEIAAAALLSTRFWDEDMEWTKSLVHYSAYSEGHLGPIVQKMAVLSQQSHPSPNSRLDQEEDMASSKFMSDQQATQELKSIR

[7] = target: Cyclin-dependent kinase 5 (Homo sapiens, UniProt Q00535); experiment: Inhibition of CDK5 (unknown origin)
Chain of Cyclin-dependent kinase 5 (Q00535 whole entry): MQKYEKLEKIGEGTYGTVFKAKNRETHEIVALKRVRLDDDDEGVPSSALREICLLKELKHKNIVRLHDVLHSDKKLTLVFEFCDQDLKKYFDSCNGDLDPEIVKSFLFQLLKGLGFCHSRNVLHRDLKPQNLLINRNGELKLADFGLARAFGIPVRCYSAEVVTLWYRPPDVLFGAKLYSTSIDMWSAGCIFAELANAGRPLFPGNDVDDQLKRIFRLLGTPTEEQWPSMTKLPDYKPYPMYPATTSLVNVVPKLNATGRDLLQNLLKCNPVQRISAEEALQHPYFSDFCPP

Chain of Cyclin-dependent kinase 5/CDK5 activator 1 (Q00535 whole entry): as above
Chain of Cyclin-dependent kinase 5/CDK5 activator 1 (Q15078 whole entry, further chain): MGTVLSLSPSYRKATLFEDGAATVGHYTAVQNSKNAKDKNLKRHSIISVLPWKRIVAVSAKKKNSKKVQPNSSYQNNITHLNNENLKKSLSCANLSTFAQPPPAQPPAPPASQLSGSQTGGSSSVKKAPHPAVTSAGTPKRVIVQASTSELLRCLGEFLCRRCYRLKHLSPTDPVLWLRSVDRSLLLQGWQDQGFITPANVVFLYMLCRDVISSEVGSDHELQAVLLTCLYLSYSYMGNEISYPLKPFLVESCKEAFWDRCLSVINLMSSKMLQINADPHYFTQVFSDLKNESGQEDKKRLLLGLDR

pIC50 [1]	pIC50 [2]	pIC50 [3]	pIC50 [7]	SMILES	IC50 [4]	pIC50 [5]	pIC50 [6]
6.72	6.48	6.19	–	CC(C)n1cnc2c(Nc3ccc(-c4cncnc4)cc3)nc(NC(CO)CO)nc21	–	–	–
6.21	–	7.15	–	CC(C)n1cnc2c(Nc3cccc(-c4ncccn4)c3)nc(NC(CO)CO)nc21	–	–	–
6.96	–	7.30	–	CC(C)n1cnc2c(Nc3cccc(-c4ncccn4)c3)nc(NC(C)(C)CO)nc21	–	–	–
6.96	6.96	6.49	–	CC(C)n1cnc2c(Nc3cccc(-c4cncnc4)c3)nc(NC(C)(C)CO)nc21	–	–	–

Further lines, the compound ahead of its results:

SMILES	pIC50 [1]	pIC50 [2]	pIC50 [3]	pIC50 [7]	IC50 [4]	pIC50 [5]	pIC50 [6]
CC(C)n1cnc2c(Nc3ccc(-c4cncnc4)cc3)nc(Cl)nc21	5.68	5.96	6.39	–	> 10000 nM	–	–
CC(C)n1cnc2c(Nc3ccc(-c4cncnc4)cc3)nc(NC(C)(C)CO)nc21	6.96	6.70	6.30	–	–	–	–
CC(C)n1cnc2c(Nc3cccc(-c4ncccn4)c3)nc(Cl)nc21	5.72	5.72	7.22	–	> 10000 nM	< 5.00	5.00
NC1=NC(=O)/C(=C2\CCNC(=O)c3[nH]c(Br)cc32)N1 [HYMENIALDISINE]	–	–	–	7.52	–	–	–
CC(C)n1cnc2c(Nc3cccc(-c4cncnc4)c3)nc(Cl)nc21	6.00	–	6.42	–	> 10000 nM	–	–
